Like-named read-outs stand apart in the source and are kept apart here.
How the values were obtained:
[1] = biological target: human Farnesoid X receptor ligand-binding domain/Gal4 DNA binding domain chimera (Homo sapiens (Human), UniProt Q96RI1); test: Cell-based FXR beta-lactamase reporter assay (FXR-UAS-bla HEK 293T cells); conditions: for Emax: HEK-293T, read-out: % Efficacy; for EC50 / FXR pEC50 / % Efficacy: cellular FXR beta-lactamase reporter assay; for EC50 / FXR pEC50: -log EC50; for EC50: read-out: FXR pEC50 (converted); for % Efficacy: extent of activation relative to GW4064
Experimental: FXR activation was measured using a cell line and procedure obtained from Life Technologies (Cat #K1691). FXR-UAS-bla HEK 293T cells contain a human Farnesoid X receptor ligand-binding domain/Gal4 DNA binding domain chimera stably integrated into the CellSensor® UAS-bla HEK 293T cell line. The CellSensor® UAS-bla HEK 293T contains a beta-lactamase reporter gene under control of a UAS response element stably integrated into HEK 293T cells. Activation of FXR by bound ligands results in transcriptional activation of the beta-lactamase reporter gene, which is detected via assay of beta-lactamase activity. Cells are harvested and diluted into assay medium containing phenol red-free DMEM supplemented with 2% Charcoal-stripped FBS, pyruvate, non-essential amino acids. Cells are then transferred to a 384 well assay plate. Test compounds are dissolved in DMSO and a 3-fold serial dilution series is generated, then further diluted into assay medium. […] A FRET-based […] is loaded into cells as its acetomethoxy ester. Intracellular esterases liberate free CCF4, a cephalosporin core linking 7-hydroxycoumarin to fluorescein. In the presence of beta-lactamase activity produced in the presence of FXR agonists, cleavage of CCF4 spatially separates the two dyes and disrupts FRET, so that exciting the coumarin at 409 nm now produces a blue fluorescence signal at 447 nm. The change in FRET signal is plotted against the test compound concentration and fit to a 3-parameter logistical equation.

[2] = biological target: ligand binding domain of human FXR (Homo sapiens (Human), UniProt Q96RI1); test: FXR ligand binding assay (LanthaScreen FRET); conditions: for Emax: read-out: % Efficacy; for FXR pEC50: -log EC50;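 as to all read-outs here: TR-FRET coactivator recruitment: ligand-induced binding of fluorescein-labelled SRC2-2 peptide to GST-tagged FXR LBD detected via Tb anti-GST antibody, serial compound dilutions, 3-parameter logistic fit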
Experimental: The affinity of FXR ligands for the ligand binding domain of FXR was determined using a commercially available human FXR ligand binding assay (LanthaScreen, Thermofisher Cat #PV4833). […] Binding of FXR ligands to the FXR ligand binding domain promotes binding of the fluorescein-labelled SRC2-2 peptide. This causes a FRET signal between the terbium-labelled anti-GST antibody and the fluorescein-labelled SRC peptide which are both bound to the FXR ligand binding domain.
Test compounds are dissolved in DMSO and a 3-fold serial dilution series is generated, then further diluted into assay buffer. The compounds are mixed with 5 nM GST-tagged FXR ligand binding domain, 5 nM Tb-labelled anti-GST antibody and 500 nM fluorcscein-labelled SRC2-2 peptide in a pH 7.4 buffer. The reaction is incubated at room temperature for 1 hour, then the FRET signal is measured as the ratio of the 520 nm/495 nm emission following excitation at 340 nm. The change in FRET signal is plotted against the test article concentration and fit to a 3-parameter logistical equation.

[3] = FXR ligand binding assay, extent of activation relative to GW4064

Sequence of human Farnesoid X receptor ligand-binding domain/Gal4 DNA binding domain chimera (Q96RI1 262-486, stated change not applied): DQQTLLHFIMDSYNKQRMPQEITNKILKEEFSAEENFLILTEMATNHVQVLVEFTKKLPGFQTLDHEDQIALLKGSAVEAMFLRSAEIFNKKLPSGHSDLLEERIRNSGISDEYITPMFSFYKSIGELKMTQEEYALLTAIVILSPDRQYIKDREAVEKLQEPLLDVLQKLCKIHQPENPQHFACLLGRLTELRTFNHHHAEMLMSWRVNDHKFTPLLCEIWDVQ
Sequence of ligand binding domain of human FXR (Q96RI1 262-486): as the sequence (Q96RI1 262-486, stated change not applied) above

Structure (SMILES)	Emax [1]	EC50 [1]	Emax [2]	FXR pEC50 ([2]; FXR ligand binding assay)	FXR pEC50 [1]	% Efficacy [1]	% Efficacy [2]	% Efficacy [2, 3]
COc1cc(C(=O)O)cc2sc(N3[C@@H]4CC[C@H]3C[C@@H](OC(=O)c3c(-c5c(F)cccc5F)noc3C3CC3)C4)nc12 [Compound I-17, 2-[(1R,3R,5S)-3-[5-cyclopropyl-3-(2,6-difluorophenyl)-1,2-oxazole-4-carbonyloxy]-8-azabicyclo[3.2.1]octan-8-yl]-4-methoxy-1,3-benzothiazole-6-carboxylic Acid]	112%	126 nM	44%	–	–	–	–	–
COc1cc(C(=O)O)cc2sc(N3[C@@H]4CC[C@H]3C[C@@H](OC(=O)c3c(-c5c(Cl)cccc5Cl)noc3C3CC3)C4)nc12 [Compound I-8, 2-[(1R,3R,5S)-3-[5-Cyclopropyl-3-(2,6-dichlorophenyl)-1,2-oxazole-4-carbonyloxy]-8-azabicyclo[3.2.1]octan-8-yl]-4-methoxy-1,3-benzothiazole-6-carboxylic Acid]	114%	3.98 nM	105%	–	–	–	–	–
O=C(O)c1ccc(N2[C@@H]3CC[C@H]2C[C@@H](OC(=O)c2c(-c4c(Cl)cccc4Cl)noc2C2CC2)C3)c(Cl)c1 [Compound I-36, 3-chloro-4-[(1R,3R,5S)-3-[5-cyclopropyl-3-(2,6-dichlorophenyl)-1,2-oxazole-4-carbonyloxy]-8-azabicyclo[3.2.1]octan-8-yl]benzoic acid]	99%	158 nM	106%	7.3	–	–	–	–
Cn1c(N2[C@@H]3CC[C@H]2C[C@@H](OC(=O)c2c(-c4c(Cl)cccc4Cl)noc2C2CC2)C3)nc2c(F)cc(C(=O)O)cc21 [Compound I-31, 2-[(1R,3R,5S)-3-[5-cyclopropyl-3-(2,6-dichlorophenyl)-1,2-oxazole-4-carbonyloxy]-8-azabicyclo[3.2.1]octan-8-yl]-4-fluoro-1-methyl-1H-1,3-benzodiazole-6-carboxylic Acid]	–	–	–	6.6	6.4	100%	63%	–
O=C(O)c1cc(F)c2nc(N3[C@@H]4CC[C@H]3C[C@@H](OC(=O)c3c(-c5c(Cl)cccc5Cl)noc3C3(F)CC3)C4)sc2c1 [Compound I-27, 2-[(1R,3R,5S)-3-[3-(2,6-dichlorophenyl)-5-(1-fluorocyclopropyl)-1,2-oxazole-4-carbonyloxy]-8-azabicyclo[3.2.1]octan-8-yl]-4-fluoro-1,3-benzothiazole-6-carboxylic Acid]	–	–	–	8.2	8.4	108%	–	107%
COc1cc2nc(N3[C@@H]4CC[C@H]3C[C@@H](OC(=O)c3c(-c5c(Cl)cccc5Cl)noc3C3CC3)C4)sc2cc1C(=O)O [Compound I-7, 2-[(1R,3R,5S)-3-[5-cyclopropyl-3-(2,6-dichlorophenyl)-1,2-oxazole-4-carbonyloxy]-8-azabicyclo[3.2.1]octan-8-yl]-5-methoxy-1,3-benzothiazole-6-carboxylic Acid]	110%	7.94 nM	125%	–	–	–	–	–
O=C(O)CNC(=O)c1cc(F)c2nc(N3[C@@H]4CC[C@H]3C[C@@H](OC(=O)c3c(-c5c(Cl)cccc5Cl)noc3C3CC3)C4)sc2c1 [Compound I-4, 2-({2-[(1R,3R,5S)-3-[5-cyclopropyl-3-(2,6-dichlorophenyl)-1,2-oxazole-4-carbonyloxy]-8-azabicyclo[3.2.1]octan-8-yl]-4-fluoro-1,3-benzothiazol-6-yl}formamido)acetic Acid]	109%	794 nM	76%	–	–	–	–	–
O=C(O)c1cc(F)c2nc(N3[C@@H]4CC[C@H]3C[C@@H](OC(=O)c3c(-c5ccccc5OC(F)(F)F)noc3C3CC3)C4)sc2c1 [Compound I-14, 2-[(1R,3R,5S)-3-{5-cyclopropyl-3-[2-(trifluoromethoxy)phenyl]-1,2-oxazole-4-carbonyloxy}-8-azabicyclo[3.2.1]octan-8-yl]-4-fluoro-1,3-benzothiazole-6-carboxylic Acid]	–	–	–	7.6	8.1	116%	–	147%
